Measured values from ChEMBL document CHEMBL4507274 (2021).

Columns and labels:
[1] = target: Ephrin type-B receptor 1 (Homo sapiens) (UniProt P54762); conditions: Compound concentration 100.0 nM
[2] = test system: Receptor-type tyrosine-protein kinase FLT3 (Homo sapiens), P36888 [D835Y]; conditions: Compound concentration 100.0 nM
[3] = target: RAF proto-oncogene serine/threonine-protein kinase (Homo sapiens) (UniProt P04049); conditions: Compound concentration 100.0 nM
[4] = target: Rho-associated protein kinase 2 (Homo sapiens, UniProt O75116); conditions: Compound concentration 100.0 nM
[5] = target: Receptor tyrosine-protein kinase erbB-2 (Homo sapiens) (UniProt P04626); conditions: Compound concentration 100.0 nM
Sequence of Receptor tyrosine-protein kinase erbB-2 (Homo sapiens) (P04626 whole entry): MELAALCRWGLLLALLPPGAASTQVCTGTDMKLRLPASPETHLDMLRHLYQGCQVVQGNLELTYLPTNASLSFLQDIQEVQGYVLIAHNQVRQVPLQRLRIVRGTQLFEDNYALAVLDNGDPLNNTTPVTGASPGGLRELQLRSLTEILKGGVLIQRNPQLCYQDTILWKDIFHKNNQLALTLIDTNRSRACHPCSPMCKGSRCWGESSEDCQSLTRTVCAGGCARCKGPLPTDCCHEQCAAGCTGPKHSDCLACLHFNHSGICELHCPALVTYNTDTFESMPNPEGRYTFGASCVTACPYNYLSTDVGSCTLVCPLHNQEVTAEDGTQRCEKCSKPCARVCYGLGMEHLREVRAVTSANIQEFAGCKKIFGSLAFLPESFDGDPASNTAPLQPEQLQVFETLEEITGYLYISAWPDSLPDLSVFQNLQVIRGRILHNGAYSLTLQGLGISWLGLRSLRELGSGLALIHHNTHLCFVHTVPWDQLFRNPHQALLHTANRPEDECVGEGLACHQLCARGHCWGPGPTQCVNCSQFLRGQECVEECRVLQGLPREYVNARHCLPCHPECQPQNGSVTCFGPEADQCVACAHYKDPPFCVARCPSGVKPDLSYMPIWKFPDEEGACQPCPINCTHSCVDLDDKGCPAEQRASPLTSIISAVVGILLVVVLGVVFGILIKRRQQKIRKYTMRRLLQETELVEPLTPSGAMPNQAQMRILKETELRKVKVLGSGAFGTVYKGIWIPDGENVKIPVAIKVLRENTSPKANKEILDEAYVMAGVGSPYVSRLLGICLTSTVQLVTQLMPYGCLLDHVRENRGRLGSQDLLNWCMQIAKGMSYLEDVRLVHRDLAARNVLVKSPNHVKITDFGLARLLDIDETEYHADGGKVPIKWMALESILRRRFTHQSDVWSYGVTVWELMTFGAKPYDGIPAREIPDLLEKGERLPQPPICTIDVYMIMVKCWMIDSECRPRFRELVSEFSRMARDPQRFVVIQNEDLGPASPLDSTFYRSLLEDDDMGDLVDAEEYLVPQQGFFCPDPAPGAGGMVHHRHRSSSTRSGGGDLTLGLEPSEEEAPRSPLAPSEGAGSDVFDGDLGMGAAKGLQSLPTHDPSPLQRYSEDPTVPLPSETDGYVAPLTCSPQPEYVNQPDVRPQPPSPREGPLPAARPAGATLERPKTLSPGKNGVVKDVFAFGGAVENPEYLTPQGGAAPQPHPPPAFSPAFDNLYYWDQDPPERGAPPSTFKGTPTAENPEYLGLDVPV

[6] = target: T1, Protein kinase C iota type (Homo sapiens) (UniProt P41743); conditions: Compound concentration 100.0 nM
T1 sequence (whole entry): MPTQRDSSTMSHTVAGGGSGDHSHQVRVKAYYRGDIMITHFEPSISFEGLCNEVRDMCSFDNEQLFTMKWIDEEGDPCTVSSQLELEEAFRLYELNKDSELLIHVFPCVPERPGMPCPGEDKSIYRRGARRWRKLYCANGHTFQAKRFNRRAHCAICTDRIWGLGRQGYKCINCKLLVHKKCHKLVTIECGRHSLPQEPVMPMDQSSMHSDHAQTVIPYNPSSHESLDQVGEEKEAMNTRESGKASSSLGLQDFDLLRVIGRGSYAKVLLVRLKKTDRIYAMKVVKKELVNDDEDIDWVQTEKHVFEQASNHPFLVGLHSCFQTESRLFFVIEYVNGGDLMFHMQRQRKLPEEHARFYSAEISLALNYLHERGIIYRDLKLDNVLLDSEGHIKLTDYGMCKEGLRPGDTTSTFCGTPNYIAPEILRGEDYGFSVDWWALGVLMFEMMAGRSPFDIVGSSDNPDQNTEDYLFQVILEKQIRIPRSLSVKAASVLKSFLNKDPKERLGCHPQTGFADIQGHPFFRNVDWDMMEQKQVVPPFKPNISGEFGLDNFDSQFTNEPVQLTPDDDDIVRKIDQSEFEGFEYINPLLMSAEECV

[7] = target: High affinity nerve growth factor receptor (Homo sapiens) (UniProt P04629); conditions: Compound concentration 100.0 nM
[8] = target: Serine/threonine-protein kinase D3 (Homo sapiens) (UniProt O94806); conditions: Compound concentration 100.0 nM
Sequence of Serine/threonine-protein kinase D3 (Homo sapiens) (O94806 whole entry): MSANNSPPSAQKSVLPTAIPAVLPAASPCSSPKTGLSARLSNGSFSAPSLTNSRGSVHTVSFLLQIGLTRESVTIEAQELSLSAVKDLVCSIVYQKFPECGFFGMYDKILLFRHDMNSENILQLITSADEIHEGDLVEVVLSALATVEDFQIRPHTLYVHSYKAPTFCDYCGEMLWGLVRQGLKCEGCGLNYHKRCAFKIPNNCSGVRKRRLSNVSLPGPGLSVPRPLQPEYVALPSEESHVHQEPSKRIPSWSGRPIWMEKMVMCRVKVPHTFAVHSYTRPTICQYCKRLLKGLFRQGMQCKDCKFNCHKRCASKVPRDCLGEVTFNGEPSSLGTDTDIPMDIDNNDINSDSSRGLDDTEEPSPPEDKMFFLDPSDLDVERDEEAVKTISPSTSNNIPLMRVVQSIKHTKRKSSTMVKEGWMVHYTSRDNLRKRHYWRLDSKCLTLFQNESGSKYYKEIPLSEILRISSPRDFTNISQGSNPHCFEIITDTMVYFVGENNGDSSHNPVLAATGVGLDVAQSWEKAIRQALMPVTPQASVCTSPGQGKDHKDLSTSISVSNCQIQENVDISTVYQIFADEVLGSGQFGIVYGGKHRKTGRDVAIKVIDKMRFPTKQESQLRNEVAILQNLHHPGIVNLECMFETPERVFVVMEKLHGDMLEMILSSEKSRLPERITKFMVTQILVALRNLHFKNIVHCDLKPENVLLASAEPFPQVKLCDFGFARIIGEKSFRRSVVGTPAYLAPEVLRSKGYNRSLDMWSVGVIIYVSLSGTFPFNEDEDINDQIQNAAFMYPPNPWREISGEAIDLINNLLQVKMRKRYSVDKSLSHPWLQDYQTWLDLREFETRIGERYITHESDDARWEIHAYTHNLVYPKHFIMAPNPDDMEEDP

[9] = target: Tyrosine-protein kinase ABL2 (Homo sapiens) (UniProt P42684); conditions: Compound concentration 100.0 nM
[10] = target: Tyrosine-protein kinase Yes (Homo sapiens) (UniProt P07947); conditions: Compound concentration 100.0 nM
[11] = target: Serine/threonine-protein kinase B-raf (Homo sapiens) (UniProt P15056); conditions: Compound concentration 100.0 nM
Sequence of Serine/threonine-protein kinase B-raf (Homo sapiens) (P15056 whole entry, canonical isoform): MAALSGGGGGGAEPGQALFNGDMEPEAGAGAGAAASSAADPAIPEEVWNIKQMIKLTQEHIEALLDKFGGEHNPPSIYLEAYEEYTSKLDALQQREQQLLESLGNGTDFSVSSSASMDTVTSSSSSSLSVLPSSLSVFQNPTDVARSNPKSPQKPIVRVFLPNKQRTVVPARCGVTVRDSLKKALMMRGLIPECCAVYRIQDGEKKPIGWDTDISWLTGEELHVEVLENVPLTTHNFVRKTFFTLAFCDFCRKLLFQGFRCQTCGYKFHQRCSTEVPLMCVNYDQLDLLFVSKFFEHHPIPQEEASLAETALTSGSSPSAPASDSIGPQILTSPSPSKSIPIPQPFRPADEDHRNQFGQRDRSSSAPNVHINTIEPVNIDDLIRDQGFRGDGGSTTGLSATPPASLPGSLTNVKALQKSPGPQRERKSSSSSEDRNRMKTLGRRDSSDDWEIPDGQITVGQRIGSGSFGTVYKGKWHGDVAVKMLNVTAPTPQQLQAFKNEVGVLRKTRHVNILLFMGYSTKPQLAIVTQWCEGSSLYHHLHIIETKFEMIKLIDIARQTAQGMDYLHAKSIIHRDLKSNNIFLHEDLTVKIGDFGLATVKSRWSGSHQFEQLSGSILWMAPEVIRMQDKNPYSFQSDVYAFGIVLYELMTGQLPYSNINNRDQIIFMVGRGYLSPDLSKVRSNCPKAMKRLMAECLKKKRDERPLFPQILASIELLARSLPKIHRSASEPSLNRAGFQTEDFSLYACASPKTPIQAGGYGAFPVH

[12] = target: Casein kinase I isoform gamma-3 (Homo sapiens) (UniProt Q9Y6M4); conditions: Compound concentration 100.0 nM
[13] = target: Serine/threonine-protein kinase 38-like (Homo sapiens) (UniProt Q9Y2H1); conditions: Compound concentration 100.0 nM
Sequence of Serine/threonine-protein kinase 38-like (Homo sapiens) (Q9Y2H1 2-464 limits assumed): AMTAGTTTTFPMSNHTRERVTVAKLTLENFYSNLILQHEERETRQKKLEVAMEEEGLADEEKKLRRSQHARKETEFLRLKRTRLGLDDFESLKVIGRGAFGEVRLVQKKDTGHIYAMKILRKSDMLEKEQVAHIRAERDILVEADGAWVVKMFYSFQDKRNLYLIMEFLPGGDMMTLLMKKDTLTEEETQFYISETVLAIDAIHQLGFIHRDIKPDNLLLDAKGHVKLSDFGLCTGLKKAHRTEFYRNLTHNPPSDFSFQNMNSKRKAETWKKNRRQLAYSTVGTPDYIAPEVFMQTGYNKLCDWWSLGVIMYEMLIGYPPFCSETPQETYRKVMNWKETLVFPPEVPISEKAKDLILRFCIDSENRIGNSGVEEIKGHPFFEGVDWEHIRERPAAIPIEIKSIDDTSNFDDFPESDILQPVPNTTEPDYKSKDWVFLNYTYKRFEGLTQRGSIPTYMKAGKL

[14] = target: Protein-tyrosine kinase 2-beta (Homo sapiens) (UniProt Q14289); conditions: Compound concentration 100.0 nM
[15] = target: Serine/threonine-protein kinase RIO2 (Homo sapiens) (UniProt Q9BVS4); conditions: Compound concentration 100.0 nM
[16] = target: Serine/threonine-protein kinase N1 (Homo sapiens) (UniProt Q16512); conditions: Compound concentration 100.0 nM
Sequence of Serine/threonine-protein kinase N1 (Homo sapiens) (Q16512 2-942 limits assumed): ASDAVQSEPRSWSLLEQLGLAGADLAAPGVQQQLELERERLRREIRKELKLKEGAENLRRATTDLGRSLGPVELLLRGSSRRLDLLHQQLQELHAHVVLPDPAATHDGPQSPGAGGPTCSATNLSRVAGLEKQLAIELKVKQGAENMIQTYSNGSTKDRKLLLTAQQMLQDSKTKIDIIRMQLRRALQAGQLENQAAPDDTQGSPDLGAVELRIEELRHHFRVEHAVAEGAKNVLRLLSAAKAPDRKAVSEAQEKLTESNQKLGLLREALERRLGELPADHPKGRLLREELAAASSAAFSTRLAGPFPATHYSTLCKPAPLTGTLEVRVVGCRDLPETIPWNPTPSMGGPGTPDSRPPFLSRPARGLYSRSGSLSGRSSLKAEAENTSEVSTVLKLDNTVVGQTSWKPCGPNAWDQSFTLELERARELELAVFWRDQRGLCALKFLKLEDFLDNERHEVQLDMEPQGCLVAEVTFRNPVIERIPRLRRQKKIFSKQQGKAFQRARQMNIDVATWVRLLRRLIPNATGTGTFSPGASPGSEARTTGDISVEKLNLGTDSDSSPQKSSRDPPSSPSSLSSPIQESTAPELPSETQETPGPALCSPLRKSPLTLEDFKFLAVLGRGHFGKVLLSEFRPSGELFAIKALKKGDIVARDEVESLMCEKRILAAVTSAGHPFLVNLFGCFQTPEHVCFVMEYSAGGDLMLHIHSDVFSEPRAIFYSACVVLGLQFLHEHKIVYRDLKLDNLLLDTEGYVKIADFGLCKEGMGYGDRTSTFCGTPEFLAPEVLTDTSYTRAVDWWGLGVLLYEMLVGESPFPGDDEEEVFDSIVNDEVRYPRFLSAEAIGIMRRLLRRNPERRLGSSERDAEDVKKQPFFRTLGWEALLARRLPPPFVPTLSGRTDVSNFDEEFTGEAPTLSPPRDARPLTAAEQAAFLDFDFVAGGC

[17] = target: Ephrin type-A receptor 4 (Homo sapiens) (UniProt P54764); conditions: Compound concentration 100.0 nM
[18] = target: D(2) dopamine receptor (Homo sapiens) (UniProt P14416); conditions: Compound concentration 10.0 uM
[19] = target: STE20-like serine/threonine-protein kinase (Homo sapiens) (UniProt Q9H2G2); conditions: Compound concentration 100.0 nM
[20] = target: Serine/threonine-protein kinase PAK 6 (Homo sapiens) (UniProt Q9NQU5); conditions: Compound concentration 100.0 nM
Sequence of Serine/threonine-protein kinase PAK 6 (Homo sapiens) (Q9NQU5 whole entry, looked up): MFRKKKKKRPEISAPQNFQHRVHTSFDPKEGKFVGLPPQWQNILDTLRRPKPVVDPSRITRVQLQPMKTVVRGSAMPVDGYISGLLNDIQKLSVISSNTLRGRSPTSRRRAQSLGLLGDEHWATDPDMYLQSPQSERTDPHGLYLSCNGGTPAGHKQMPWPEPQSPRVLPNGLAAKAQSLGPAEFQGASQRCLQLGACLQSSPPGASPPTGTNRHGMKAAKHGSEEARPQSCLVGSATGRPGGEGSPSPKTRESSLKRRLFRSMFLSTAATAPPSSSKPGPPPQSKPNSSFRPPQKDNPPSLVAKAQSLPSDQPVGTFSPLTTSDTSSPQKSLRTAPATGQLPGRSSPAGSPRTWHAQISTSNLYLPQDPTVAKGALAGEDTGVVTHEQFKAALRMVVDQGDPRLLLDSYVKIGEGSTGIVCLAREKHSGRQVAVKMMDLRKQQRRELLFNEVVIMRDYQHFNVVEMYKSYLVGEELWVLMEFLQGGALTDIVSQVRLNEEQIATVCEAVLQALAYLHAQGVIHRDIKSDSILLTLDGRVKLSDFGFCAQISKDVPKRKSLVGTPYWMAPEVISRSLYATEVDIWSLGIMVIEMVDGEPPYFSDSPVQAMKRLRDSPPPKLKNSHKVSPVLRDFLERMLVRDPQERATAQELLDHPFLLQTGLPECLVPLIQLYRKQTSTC

[21] = target: MAP/microtubule affinity-regulating kinase 3 (Homo sapiens) (UniProt P27448); conditions: Compound concentration 100.0 nM
[22] = test system: Tyrosine-protein kinase ABL1 (Homo sapiens), P00519 [F317L]; conditions: Compound concentration 100.0 nM
[23] = target: TGF-beta receptor type-1 (Homo sapiens) (UniProt P36897); conditions: Compound concentration 100.0 nM
[24] = target: Leukocyte tyrosine kinase receptor (Homo sapiens) (UniProt P29376); conditions: Compound concentration 100.0 nM
[25] = target: Cyclin-dependent kinase 3 (Homo sapiens) (UniProt Q00526); conditions: Compound concentration 100.0 nM
[26] = target: Calcium/calmodulin-dependent protein kinase type 1 (Homo sapiens) (UniProt Q14012); conditions: Compound concentration 100.0 nM
[27] = target: Sodium-dependent serotonin transporter (Homo sapiens) (UniProt P31645); conditions: Compound concentration 10.0 uM
[28] = target: Proto-oncogene tyrosine-protein kinase ROS (Homo sapiens) (UniProt P08922); conditions: Compound concentration 100.0 nM
[29] = target: Interferon-induced, double-stranded RNA-activated protein kinase (Homo sapiens) (UniProt P19525); conditions: Compound concentration 100.0 nM
[30] = test system: Phosphatidylinositol 4,5-bisphosphate 3-kinase catalytic subunit alpha isoform (Homo sapiens), P42336 [E545K]; conditions: Compound concentration 100.0 nM
[31] = target: T2, Mitogen-activated protein kinase 13 (Homo sapiens) (UniProt O15264); conditions: Compound concentration 100.0 nM
T2 sequence (whole entry): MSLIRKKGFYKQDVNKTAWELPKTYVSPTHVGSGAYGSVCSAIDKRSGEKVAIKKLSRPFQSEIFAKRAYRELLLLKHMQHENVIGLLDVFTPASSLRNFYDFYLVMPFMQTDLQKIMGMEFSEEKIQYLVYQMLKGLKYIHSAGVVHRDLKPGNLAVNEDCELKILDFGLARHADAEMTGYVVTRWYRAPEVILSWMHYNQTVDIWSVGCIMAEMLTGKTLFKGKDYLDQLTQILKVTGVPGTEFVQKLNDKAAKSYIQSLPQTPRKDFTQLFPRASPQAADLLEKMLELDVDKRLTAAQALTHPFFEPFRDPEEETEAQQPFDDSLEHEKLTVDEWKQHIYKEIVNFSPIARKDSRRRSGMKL

[32] = target: Tyrosine-protein kinase Tec (Homo sapiens) (UniProt P42680); conditions: Compound concentration 100.0 nM

Row | Compound | residual activity [1] [%] | residual activity [2] [%] | residual activity [3] [%] | residual activity [4] [%] | residual activity [5] [%] | residual activity [6] [%] | residual activity [7] [%] | residual activity [8] [%] | residual activity [9] [%] | residual activity [10] [%] | residual activity [11] [%] | residual activity [12] [%] | residual activity [13] [%] | residual activity [14] [%] | residual activity [15] [%] | residual activity [16] [%] | residual activity [17] [%] | inhibition [18] [%] | residual activity [19] [%] | residual activity [20] [%] | other results
1 | Cc1c[nH]c2nccc(Oc3c(F)cc(Nc4cc(Cl)nc(N)n4)cc3F)c12 [BAY-549] | 86 | 63 | 75 | 0.9 | 99 | 100 | 81 | 100 | 86 | 96 | 98 | 100 | 87 | 90 | 85 | 72 | 100 | -4.56 | 97 | 82 | residual activity [21]: 74%; residual activity [22]: 84%; residual activity [23]: 81%; residual activity [24]: 99%; residual activity [25]: 97%; residual activity [26]: 92%; inhibition [27]: 2.1%; residual activity [28]: 96%; residual activity [29]: 100%; residual activity [30]: 82%; residual activity [31]: 89%; residual activity [32]: 86%
2 | Cn1cc(Cl)c2c(Oc3c(F)cc(Nc4cc(Cl)nc(N)n4)cc3F)ccnc21 [BAY-4900] | 96 | 99 | 91 | 83 | 95 | 100 | 74 | 100 | 99 | 93 | 100 | 100 | 100 | 100 | 100 | 100 | 100 | 1.05 | 98 | 100 | residual activity [21]: 83%; residual activity [22]: 94%; residual activity [23]: 93%; residual activity [24]: 87%; residual activity [25]: 100%; residual activity [26]: 100%; inhibition [27]: -5.34%; residual activity [28]: 100%; residual activity [29]: 100%; residual activity [30]: 78%; residual activity [31]: 95%; residual activity [32]: 100%
